Assay results: patent US9707249B2, “Trehalulose-containing composition, its preparation and use” (SÜDZUCKER AKTIENGESELLSCHAFT MANNHEIM/OCHSENFURT, priority 2009, dated 2017)

Key:
[1] = Blood insulin response (insulinemic index, II) after consumption, randomized cross over analysis; type: in vivo, human; conditions: ten healthy subjects, 25 g carbohydrate and 250 ml water, 0 to 180 minutes
Experimental: (§1) The effect of trehalulose on the blood glucose response (glycemic index, GI) and the insulin response (insulinemic index, II) was examined in comparison to isomaltulose. The analysis was done as a randomized cross over analysis on ten healthy subjects of both sex. Blood glucose- and insulin-profiles were taken after consumption of isomaltulose or trehalulose (each 25 g carbohydrate and 250 ml water) for an interval of 0 to 180 minutes at the following time points 0, 15, 30, 45, 60, 90, 120, 150 and 180 minutes.

[2] = Blood glucose response (glycemic index, GI) after consumption, randomized cross over analysis; type: in vivo, human; conditions: ten healthy subjects, 25 g carbohydrate and 250 ml water, 0 to 180 minutes, compared to isomaltulose
Experimental: as §1

[3] = Stability of trehalulose during preparation (cooking) of jellies; type: physicochemical; conditions: when cooking the jellies
Experimental: In the following, four recipes for jellies using as sweeteners a mixture of sucrose and glucose and four recipes using the trehalulose-containing composition, that means vitalose, of the present invention are prepared. The jellies prepared were tested comparatively in storage and TPA-analysis.
In all of the jelly recipes the conventional sweetener combination of sucrose and glucose could be successfully replaced by the trehalulose-containing composition, that means vitalose, of the present invention. The preparation using the trehalulose-containing composition, that means vitalose, was exactly as for the sucrose/glucose compositions.

SMILES | insulin response (II), blood insulin level [1] | blood glucose response (GI), blood glucose level [2] | degradation during preparation [3]
O=C(CO)[C@@H](O)[C@H](O)[C@H](O)CO[C@H]1O[C@H](CO)[C@@H](O)[C@H](O)[C@H]1O [isomaltulose, 6-O-α-D-glucopyranosyl-D-fructose, reference compound] | in parallel to the blood glucose response |  | 
O=C(CO[C@H]1O[C@H](CO)[C@@H](O)[C@H](O)[C@H]1O)[C@@H](O)[C@H](O)[C@H](O)CO [trehalulose, 1-O-α-D-glucopyranosyl-D-fructose] | significantly lower insulin response (II) than isomaltulose | increased and longer sustaining supply of glucose | no degradation of trehalulose was observed
